Data published in article PMC6271239, “Synthesis and in Vitro Evaluation of New Nitro-Substituted Thiazolyl Hydrazone Derivatives as Anticandidal and Anticancer Agents” (Molecules, 2014).
≈ marks a conversion by molar mass, not a printed value.

Assays:
[1] = test system: MCF-7 human breast adenocarcinoma cell line; assay: MTT cytotoxicity assay; type: cell-based; settings: 3.9–500 µg/mL; for IC50: Homo sapiens, MCF7, 24 h incubation
Procedure: (§1) The tetrazolium salt, MTT (3-(4,5-dimethylthiazol-2-yl)-2,5-diphenyltetrazolium bromide), is used to measure the metabolic activity of viable cells. Tetrazolium salts are reduced to formazan by mitochondrial succinate dehydrogenase, an enzyme which is only active in cells with an intact metabolism. The formazan can be quantified photometrically and it is in correlation with the number of viable cells. Cytotoxicity was tested using the MCF-7 human breast adenocarcinoma cell line and NIH/3T3 mouse embryonic fibroblast cell line. NIH/3T3 and MCF-7 cells were incubated in RPMI medium (Hyclone, Thermo Scientific, Logan, UT, USA) supplemented with fetal calf serum (Hyclone), 100 IU/mL penicillin and […] (Hyclone) at 37 °C in a humidified atmosphere of 95% air and 5% CO2. MCF-7 and NIH/3T3 cells were seeded at 10,000 cells into each well of 96-well plates. After 24 h of incubating period, the culture mediums were removed and compounds were added to culture medium at 3.9–500 µg/mL concentrations. After 24 h of incubation, cytotoxicity tests were performed using the MTT assay, which measures mitochondrial activity, in MCF-7 and NIH/3T3 cells. Firstly, 20 µL MTT solution (5 mg/mL MTT powder in PBS) was added to each well. After 3 h incubation period at 37 °C, 5% CO2, the contents of the wells were removed and 100 µL DMSO was added to each well. Then, OD of the plate was read at 570 nm. Inhibition% was calculated for each concentration of the compounds. IC50 values were estimated by non-linear regression analysis. Cisplatin was used as a positive control. Stock solutions of compounds were prepared in DMSO and further dilutions were made with fresh culture medium. All experiments were performed in duplicate.

[2] = test system: NIH/3T3 mouse embryonic fibroblast cell line; assay: MTT cytotoxicity assay; type: cell-based; settings: 3.9–500 µg/mL; for IC50: Mus musculus, NIH3T3, 24 h incubation
Procedure: as §1

[3] = test system: Candida albicans (ATCC 10231); assay: Anticandidal broth microdilution assay; type: cell-based; settings: ATCC10231, RPMI, 37 °C, 24 h
Procedure: (§2) Anticandidal activity assay was performed against Candida albicans (ATCC 10231), Candida utilis (NRRLY 900), Candida tropicalis (NRRLY 12968), Candida krusei (NRRLY 7179), Candida parapsilosis (NRRLY 12696) and Candida glabrata (ATCC 2001) standard strains according to the CSLI method.
(§3) The minimum inhibitory concentration (MIC, µg/mL) values against pathogenic Candida strains were determined by a broth microdilution method using a 96-well plate format. Compounds 1–14 and fluconazole as a standard control were first dissolved in dimethyl sulfoxide (DMSO) (25%) at an initial concentration of 2000 µg/mL.
(§4) All Candida strains were inoculated on Potato Dextrose Agar (PDA) prior the experiments at 37 °C. After the incubation, sufficiently grown microorganisms were inoculated in sterile saline (0.85%), and then standardized according to the turbidity to 5 × 10^3 CFU (McFarland No: 0.5) per well in RPMI medium under sterile conditions. Serial dilutions were prepared in 100 µL RPMI medium with an equal amount of the test samples, and 100 µL each microorganism suspension was pipetted into each well and incubated at 37 °C for 24 h. Positive growth controls (to assess the presence of turbidity) were performed in wells without the test samples, whereas the negative growth control (medium) was also evaluated. MIC was deﬁned as the lowest concentration without any visible growth of the yeast when compared with the growth in the control plate. All experiments were performed in duplicate.

[4] = test system: Candida glabrata (ATCC 2001); assay: Anticandidal broth microdilution assay; type: cell-based; settings: Nakaseomyces glabratus, ATCC2001, RPMI, 37 °C, 24 h
Procedure: as §2, §3, §4

[5] = test system: Candida krusei (NRRLY 7179); assay: Anticandidal broth microdilution assay; type: cell-based; settings: Pichia kudriavzevii, RPMI, 37 °C, 24 h
Procedure: as §2, §3, §4

[6] = test system: Candida parapsilosis (NRRLY 12696); assay: Anticandidal broth microdilution assay; type: cell-based; settings: Lodderomyces parapsilosis, RPMI, 37 °C, 24 h
Procedure: as §2, §3, §4

[7] = test system: Candida tropicalis (NRRLY 12968); assay: Anticandidal broth microdilution assay; type: cell-based; settings: RPMI, 37 °C, 24 h
Procedure: as §2, §3, §4

[8] = test system: Candida utilis (NRRLY 900); assay: Anticandidal broth microdilution assay; type: cell-based; settings: Williopsis jadinii, RPMI, 37 °C, 24 h
Procedure: as §2, §3, §4

Row | MIC [3] [µg/mL] | MIC [4] [µg/mL] | MIC [5] [µg/mL] | MIC [6] [µg/mL] | MIC [7] [µg/mL] | MIC [8] [µg/mL] | melting point [°C] | Compound | IC50 MCF-7 Cell Line ([1]; 24 h incubation) [µg/mL] | IC50 NIH/3T3 Cell Line ([2]; 24 h incubation) [µg/mL] | IC50 [1] [µg/mL] | IC50 [2] [µg/mL]
1 |  |  |  |  |  |  |  | N.N.[Cl][Pt][Cl] [Cisplatin, reference compound] | 31.2 | 330.58 |  | 
2 | 500 (≈ 1280 µM) | 1000 (≈ 2560 µM) | 500 (≈ 1280 µM) | 500 (≈ 1280 µM) | 1000 (≈ 2560 µM) | 500 (≈ 1280 µM) | 213 to 214 | O=[N+]([O-])c1ccc(-c2ccc(C=NNc3nc(-c4ccccc4)cs3)o2)cc1 [Compound 1, 2-[2-((5-(4-Nitrophenyl)furan-2-yl)methylene)hydrazinyl]-4-phenylthiazole] |  |  | > 500 | > 500
3 | 500 (≈ 1220 µM) | 1000 (≈ 2450 µM) | 500 (≈ 1220 µM) | 500 (≈ 1220 µM) | 500 (≈ 1220 µM) | 500 (≈ 1220 µM) | 241 to 242 | O=[N+]([O-])c1ccc(-c2ccc(C=NNc3nc(-c4ccc(F)cc4)cs3)o2)cc1 [Compound 3, 4-(4-Fluorophenyl)-2-[2-((5-(4-nitrophenyl)furan-2-yl)methylene)hydrazinyl]thiazole] |  |  | 500 (≈ 1220 µM) | 250 (≈ 612 µM)
4 | 500 (≈ 1180 µM) | 500 (≈ 1180 µM) | 500 (≈ 1180 µM) | 1000 (≈ 2350 µM) | 500 (≈ 1180 µM) | 500 (≈ 1180 µM) | 229 to 231 | O=[N+]([O-])c1ccc(-c2ccc(C=NNc3nc(-c4ccc(Cl)cc4)cs3)o2)cc1 [Compound 4, 4-(4-Chlorophenyl)-2-[2-((5-(4-nitrophenyl)furan-2-yl)methylene)hydrazinyl]thiazole] |  |  | > 500 | > 500
5 | 500 (≈ 1070 µM) | 1000 (≈ 2130 µM) | 1000 (≈ 2130 µM) | 500 (≈ 1070 µM) | 500 (≈ 1070 µM) | 500 (≈ 1070 µM) | 243 to 244 | O=[N+]([O-])c1ccc(-c2ccc(C=NNc3nc(-c4ccc(Br)cc4)cs3)o2)cc1 [Compound 5, 4-(4-Bromophenyl)-2-[2-((5-(4-nitrophenyl)furan-2-yl)methylene)hydrazinyl]thiazole] |  |  | > 500 | > 500
6 | 500 (≈ 1240 µM) | 500 (≈ 1240 µM) | 1000 (≈ 2470 µM) | 500 (≈ 1240 µM) | 1000 (≈ 2470 µM) | 500 (≈ 1240 µM) | 236 to 237 | Cc1ccc(-c2csc(NN=Cc3ccc(-c4ccc([N+](=O)[O-])cc4)o3)n2)cc1 [Compound 6, 2-[2-((5-(4-Nitrophenyl)furan-2-yl)methylene)hydrazinyl]-4-(p-tolyl)thiazole] |  |  | > 500 | > 500
7 | 500 (≈ 1190 µM) | 1000 (≈ 2380 µM) | 500 (≈ 1190 µM) | 500 (≈ 1190 µM) | 500 (≈ 1190 µM) | 500 (≈ 1190 µM) | 232 to 233 | COc1ccc(-c2csc(NN=Cc3ccc(-c4ccc([N+](=O)[O-])cc4)o3)n2)cc1 [Compound 7, 4-(4-Methoxyphenyl)-2-[2-((5-(4-nitrophenyl)furan-2-yl)methylene)hydrazinyl]thiazole] |  |  | > 500 | > 500
8 | 500 (≈ 1180 µM) | 1000 (≈ 2350 µM) | 500 (≈ 1180 µM) | 1000 (≈ 2350 µM) | 500 (≈ 1180 µM) | 500 (≈ 1180 µM) | 194 to 195 | O=[N+]([O-])c1cc(Cl)ccc1-c1ccc(C=NNc2nc(-c3ccccc3)cs2)o1 [Compound 8, 2-[2-((5-(4-Chloro-2-nitrophenyl)furan-2-yl)methylene)hydrazinyl]-4-phenylthiazole] |  |  | > 500 | > 500
9 | 500 (≈ 1130 µM) | 1000 (≈ 2260 µM) | 1000 (≈ 2260 µM) | 500 (≈ 1130 µM) | 500 (≈ 1130 µM) | 250 (≈ 565 µM) | 208 to 209 | O=[N+]([O-])c1cc(Cl)ccc1-c1ccc(C=NNc2nc(-c3ccc(F)cc3)cs2)o1 [Compound 10, 2-[2-((5-(4-Chloro-2-nitrophenyl)furan-2-yl)methylene)hydrazinyl]-4-(4-fluorophenyl)thiazole] |  |  | 122 (≈ 275 µM) | 250 (≈ 565 µM)
10 | 500 (≈ 1090 µM) | 1000 (≈ 2180 µM) | 1000 (≈ 2180 µM) | 500 (≈ 1090 µM) | 500 (≈ 1090 µM) | 500 (≈ 1090 µM) | 186 to 187 | O=[N+]([O-])c1cc(Cl)ccc1-c1ccc(C=NNc2nc(-c3ccc(Cl)cc3)cs2)o1 [Compound 11, 2-[2-((5-(4-Chloro-2-nitrophenyl)furan-2-yl)methylene)hydrazinyl]-4-(4-chlorophenyl)thiazole] |  |  | 125 (≈ 272 µM) | > 500
11 | 500 (≈ 993 µM) | 500 (≈ 993 µM) | 1000 (≈ 1990 µM) | 500 (≈ 993 µM) | 1000 (≈ 1990 µM) | 1000 (≈ 1990 µM) | 199 to 201 | O=[N+]([O-])c1cc(Cl)ccc1-c1ccc(C=NNc2nc(-c3ccc(Br)cc3)cs2)o1 [Compound 12, 4-(4-Bromophenyl)-2-[2-((5-(4-chloro-2-nitrophenyl)furan-2-yl)methylene)hydrazinyl]thiazole] |  |  | 500 (≈ 993 µM) | > 500
12 | 250 (≈ 570 µM) | 500 (≈ 1140 µM) | 500 (≈ 1140 µM) | 1000 (≈ 2280 µM) | 500 (≈ 1140 µM) | 500 (≈ 1140 µM) | 166 to 167 | Cc1ccc(-c2csc(NN=Cc3ccc(-c4ccc(Cl)cc4[N+](=O)[O-])o3)n2)cc1 [Compound 13, 2-[2-((5-(4-Chloro-2-nitrophenyl)furan-2-yl)methylene)hydrazinyl]-4-(p-tolyl)thiazole] |  |  | 500 (≈ 1140 µM) | > 500
13 | 250 (≈ 550 µM) | 500 (≈ 1100 µM) | 500 (≈ 1100 µM) | 500 (≈ 1100 µM) | 250 (≈ 550 µM) | 250 (≈ 550 µM) | 206 to 207 | COc1ccc(-c2csc(NN=Cc3ccc(-c4ccc(Cl)cc4[N+](=O)[O-])o3)n2)cc1 [Compound 14, 2-[2-((5-(4-Chloro-2-nitrophenyl)furan-2-yl)methylene)hydrazinyl]-4-(4-methoxyphenyl)thiazole] |  |  | > 500 | > 500
14 | 1 (≈ 3.27 µM) | 2 (≈ 6.53 µM) | 2 (≈ 6.53 µM) | 2 (≈ 6.53 µM) | 1 (≈ 3.27 µM) | 2 (≈ 6.53 µM) |  | OC(Cn1cncn1)(Cn1cncn1)c1ccc(F)cc1F [Fluconazole, reference compound] |  |  |  | 

Row | Compound | MIC [3] [µg/mL] | MIC [4] [µg/mL] | MIC [5] [µg/mL] | MIC [6] [µg/mL] | MIC [7] [µg/mL] | MIC [8] [µg/mL] | melting point [°C] | IC50 MCF-7 Cell Line ([1]; 24 h incubation) [µg/mL] | IC50 NIH/3T3 Cell Line ([2]; 24 h incubation) [µg/mL] | IC50 [1] [µg/mL] | IC50 [2] [µg/mL]
15 | O=[N+]([O-])c1ccc(-c2csc(NN=Cc3ccc(-c4ccc([N+](=O)[O-])cc4)o3)n2)cc1 [Compound 2, 4-(4-Nitrophenyl)-2-[2-((5-(4-nitrophenyl)furan-2-yl)methylene)hydrazinyl]thiazole] | 500 (≈ 1150 µM) | 1000 (≈ 2300 µM) | 500 (≈ 1150 µM) | 500 (≈ 1150 µM) | 500 (≈ 1150 µM) | 500 (≈ 1150 µM) | 252 to 254 |  |  | > 500 | > 500
16 | O=[N+]([O-])c1ccc(-c2csc(NN=Cc3ccc(-c4ccc(Cl)cc4[N+](=O)[O-])o3)n2)cc1 [Compound 9, 2-[2-((5-(4-Chloro-2-nitrophenyl)furan-2-yl)methylene)hydrazinyl]-4-(4-nitrophenyl)thiazole] | 500 (≈ 1060 µM) | 1000 (≈ 2130 µM) | 500 (≈ 1060 µM) | 500 (≈ 1060 µM) | 500 (≈ 1060 µM) | 500 (≈ 1060 µM) | 216 to 220 |  |  | 103 (≈ 218 µM) | 86.3 (≈ 184 µM)
